According to PubChem BioAssay (NCI):
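All cell lines were grown in 96-well plates and treated with compound for 48 hours. GI50 marks 50% less growth. The concentration for full growth arrest is given as TGI.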

What was measured:
Assay in all cases: NCI tumour cell line growth inhibition, 48 h
SK-OV-3 ovarian = system: SK-OV-3 ovarian
OVCAR-4 ovarian = system: OVCAR-4 ovarian
UO-31 renal = system: UO-31 renal
LOX IMVI melanoma = system: LOX IMVI melanoma
NCI-H226 lung = system: NCI-H226 lung
CAKI-1 renal = system: CAKI-1 renal
MDA-MB-468 breast = system: MDA-MB-468 breast
OVCAR-3 ovarian = system: OVCAR-3 ovarian
RPMI-8226 leukemia = system: RPMI-8226 leukemia
MCF7 breast = system: MCF7 breast
PC-3 prostate = system: PC-3 prostate
A549 NSCLC = system: A549 NSCLC
SF-268 CNS = system: SF-268 CNS
SNB-19 CNS = system: SNB-19 CNS
SN12C renal = system: SN12C renal
SK-MEL-2 melanoma = system: SK-MEL-2 melanoma
HCT-116 colon = system: HCT-116 colon
DU-145 prostate = system: DU-145 prostate
HCC-2998 colon = system: HCC-2998 colon
UACC-62 melanoma = system: UACC-62 melanoma
SF-539 CNS = system: SF-539 CNS
SW-620 colon = system: SW-620 colon
U251 CNS = system: U251 CNS
786-0 renal = system: 786-0 renal
T-47D breast = system: T-47D breast
SK-MEL-28 melanoma = system: SK-MEL-28 melanoma
SF-295 CNS = system: SF-295 CNS
M14 melanoma = system: M14 melanoma
MOLT-4 leukemia = system: MOLT-4 leukemia
HOP-62 NSCLC = system: HOP-62 NSCLC
UACC-257 melanoma = system: UACC-257 melanoma
HT29 colon = system: HT29 colon
COLO 205 colon = system: COLO 205 colon
CCRF-CEM leukemia = system: CCRF-CEM leukemia
TK-10 renal = system: TK-10 renal
NCI-H460 lung = system: NCI-H460 lung
KM12 colon = system: KM12 colon
SR leukemia = system: SR leukemia
HS 578T breast = system: HS 578T breast
MDA-MB-231 breast = system: MDA-MB-231 breast
SNB-75 CNS = system: SNB-75 CNS
K-562 leukemia = system: K-562 leukemia
NCI-H522 lung = system: NCI-H522 lung
IGROV1 ovarian = system: IGROV1 ovarian
NCI-H23 lung = system: NCI-H23 lung
A498 renal = system: A498 renal
NCI/ADR-RES ovarian = system: NCI/ADR-RES ovarian
OVCAR-5 ovarian = system: OVCAR-5 ovarian
BT-549 breast = system: BT-549 breast
EKVX NSCLC = system: EKVX NSCLC
OVCAR-8 ovarian = system: OVCAR-8 ovarian
HL-60(TB) leukemia = system: HL-60(TB) leukemia
HCT-15 colon = system: HCT-15 colon
HOP-92 NSCLC = system: HOP-92 NSCLC
MALME-3M melanoma = system: MALME-3M melanoma
SK-MEL-5 melanoma = system: SK-MEL-5 melanoma
ACHN renal = system: ACHN renal

`COc1ccsc1/C=N/NC(=O)c1[nH]c2ccc(Br)cc2c1-c1ccccc1` was tested, and the GI50 (SK-OV-3 ovarian) was 500 nM, the TGI (SK-OV-3 ovarian) was 34.7 µM and the GI50 (OVCAR-4 ovarian) was 6.34 µM. The TGI (OVCAR-4 ovarian) was > 100 µM, the GI50 (UO-31 renal) was 579 nM and the TGI (UO-31 renal) was 34.8 µM. It also gave a GI50 (LOX IMVI melanoma) of 519 nM, a TGI (LOX IMVI melanoma) of 13.7 µM and a GI50 (NCI-H226 lung) of 934 nM. For the same compound, the TGI (NCI-H226 lung) was 9.95 µM, the GI50 (CAKI-1 renal) was 464 nM and the TGI (CAKI-1 renal) was > 56.6 µM. For the same compound, the GI50 (MDA-MB-468 breast) was 273 nM, the TGI (MDA-MB-468 breast) was 870 nM and the GI50 (OVCAR-3 ovarian) was 407 nM. For the same compound, the TGI (OVCAR-3 ovarian) was 15.3 µM, the GI50 (RPMI-8226 leukemia) was 388 nM and the TGI (RPMI-8226 leukemia) was 3.87 µM. For the same compound, the GI50 (MCF7 breast) was 332 nM, the TGI (MCF7 breast) was 16.5 µM and the GI50 (PC-3 prostate) was 410 nM. The TGI (PC-3 prostate) was 39.7 µM, the GI50 (A549 NSCLC) was 634 nM and the TGI (A549 NSCLC) was > 54.2 µM. It also gave a GI50 (SF-268 CNS) of 997 nM, a TGI (SF-268 CNS) of 39.6 µM and a GI50 (SNB-19 CNS) of 511 nM. For the same compound, the TGI (SNB-19 CNS) was > 100 µM, the GI50 (SN12C renal) was 517 nM and the TGI (SN12C renal) was 8.11 µM. The GI50 (SK-MEL-2 melanoma) was 308 nM, the TGI (SK-MEL-2 melanoma) was 10.7 µM and the GI50 (HCT-116 colon) was 369 nM. The TGI (HCT-116 colon) was 5.51 µM, the GI50 (DU-145 prostate) was 454 nM and the TGI (DU-145 prostate) was > 100 µM. The GI50 (HCC-2998 colon) was 622 nM, the TGI (HCC-2998 colon) was 14.5 µM and the GI50 (UACC-62 melanoma) was 306 nM. The TGI (UACC-62 melanoma) was 17.5 µM, the GI50 (SF-539 CNS) was 233 nM and the TGI (SF-539 CNS) was 584 nM. For the same compound, the GI50 (SW-620 colon) was 413 nM, the TGI (SW-620 colon) was > 100 µM and the GI50 (U251 CNS) was 410 nM. It also gave a TGI (U251 CNS) of 20.5 µM, a GI50 (786-0 renal) of 563 nM and a TGI (786-0 renal) of 12.6 µM. The GI50 (T-47D breast) was 449 nM, the TGI (T-47D breast) was 25.7 µM and the GI50 (SK-MEL-28 melanoma) was 925 nM. For the same compound, the TGI (SK-MEL-28 melanoma) was 40.8 µM, the GI50 (SF-295 CNS) was 317 nM and the TGI (SF-295 CNS) was 13.4 µM. It also gave a GI50 (M14 melanoma) of 316 nM, a TGI (M14 melanoma) of 13.7 µM and a GI50 (MOLT-4 leukemia) of 403 nM. The TGI (MOLT-4 leukemia) was 11.5 µM, the GI50 (HOP-62 NSCLC) was 468 nM and the TGI (HOP-62 NSCLC) was > 45.1 µM. For the same compound, the GI50 (UACC-257 melanoma) was 2910 nM, the TGI (UACC-257 melanoma) was > 56.9 µM and the GI50 (HT29 colon) was 271 nM. The TGI (HT29 colon) was 698 nM, the GI50 (COLO 205 colon) was 373 nM and the TGI (COLO 205 colon) was 1320 nM. It also gave a GI50 (CCRF-CEM leukemia) of 311 nM, a TGI (CCRF-CEM leukemia) of 5.01 µM and a GI50 (TK-10 renal) of 7.01 µM. The TGI (TK-10 renal) was 63.9 µM, the GI50 (NCI-H460 lung) was 362 nM and the TGI (NCI-H460 lung) was 11 µM. It also gave a GI50 (KM12 colon) of 428 nM, a TGI (KM12 colon) of 13.8 µM and a GI50 (SR leukemia) of 369 nM. For the same compound, the TGI (SR leukemia) was > 100 µM, the GI50 (HS 578T breast) was 338 nM and the TGI (HS 578T breast) was 65.2 µM. For the same compound, the GI50 (MDA-MB-231 breast) was 437 nM, the TGI (MDA-MB-231 breast) was 13 µM and the GI50 (SNB-75 CNS) was 311 nM. For the same compound, the TGI (SNB-75 CNS) was 2260 nM, the GI50 (K-562 leukemia) was 282 nM and the TGI (K-562 leukemia) was > 55.7 µM. The GI50 (NCI-H522 lung) was 187 nM, the TGI (NCI-H522 lung) was 781 nM and the GI50 (IGROV1 ovarian) was 582 nM. For the same compound, the TGI (IGROV1 ovarian) was 20.5 µM, the GI50 (NCI-H23 lung) was 568 nM and the TGI (NCI-H23 lung) was 25.2 µM. For the same compound, the GI50 (A498 renal) was 15.3 µM, the TGI (A498 renal) was 53.3 µM and the GI50 (NCI/ADR-RES ovarian) was 268 nM. For the same compound, the TGI (NCI/ADR-RES ovarian) was 739 nM, the GI50 (OVCAR-5 ovarian) was 513 nM and the TGI (OVCAR-5 ovarian) was 68.2 µM. For the same compound, the GI50 (BT-549 breast) was 739 nM, the TGI (BT-549 breast) was 5.26 µM and the GI50 (EKVX NSCLC) was 502 nM. The TGI (EKVX NSCLC) was > 100 µM, the GI50 (OVCAR-8 ovarian) was 395 nM and the GI50 (HL-60(TB) leukemia) was 223 nM. It also gave a TGI (HL-60(TB) leukemia) of 605 nM, a GI50 (HCT-15 colon) of 372 nM and a TGI (HCT-15 colon) of 16.4 µM. For the same compound, the GI50 (HOP-92 NSCLC) was 4.06 µM, the TGI (HOP-92 NSCLC) was 29.3 µM and the GI50 (MALME-3M melanoma) was 538 nM. The TGI (MALME-3M melanoma) was 25.7 µM, the GI50 (SK-MEL-5 melanoma) was 315 nM and the TGI (SK-MEL-5 melanoma) was 1150 nM. For the same compound, the GI50 (ACHN renal) was 710 nM and the TGI (ACHN renal) was 20.7 µM.
